# Values quoted from earlier work in patent US20220079880A1, “SOLID MICELLAR COMPOSITIONS OF CANNABINOID ACIDS” (priority 2019, published 2022).
# Read-outs that look alike come from different tables or passages of the source.
# Legend:
# [1] = system: prostate cancer cells; settings: animal studies
# [2] = biological target: T1, PPARγ (Homo sapiens, UniProt P37231)
# T1 sequence (P37231 1-505): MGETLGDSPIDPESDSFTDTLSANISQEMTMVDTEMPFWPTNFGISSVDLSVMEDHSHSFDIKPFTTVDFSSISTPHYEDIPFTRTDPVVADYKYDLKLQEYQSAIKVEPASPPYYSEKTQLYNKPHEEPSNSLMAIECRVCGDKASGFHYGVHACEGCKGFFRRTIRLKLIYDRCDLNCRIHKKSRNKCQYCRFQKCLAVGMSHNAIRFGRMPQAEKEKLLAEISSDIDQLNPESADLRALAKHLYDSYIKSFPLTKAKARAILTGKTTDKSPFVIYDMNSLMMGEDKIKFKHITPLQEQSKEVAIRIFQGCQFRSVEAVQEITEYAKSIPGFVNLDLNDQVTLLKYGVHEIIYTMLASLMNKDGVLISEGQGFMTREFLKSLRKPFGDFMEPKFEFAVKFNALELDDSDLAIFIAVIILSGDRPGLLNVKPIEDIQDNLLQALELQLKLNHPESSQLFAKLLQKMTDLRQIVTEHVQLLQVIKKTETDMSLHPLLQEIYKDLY
# [3] = nano-size lipid-based systems
# [4] = biological target: T2, COX-2 (Homo sapiens, UniProt P35354)
# T2 sequence (P35354 18-604): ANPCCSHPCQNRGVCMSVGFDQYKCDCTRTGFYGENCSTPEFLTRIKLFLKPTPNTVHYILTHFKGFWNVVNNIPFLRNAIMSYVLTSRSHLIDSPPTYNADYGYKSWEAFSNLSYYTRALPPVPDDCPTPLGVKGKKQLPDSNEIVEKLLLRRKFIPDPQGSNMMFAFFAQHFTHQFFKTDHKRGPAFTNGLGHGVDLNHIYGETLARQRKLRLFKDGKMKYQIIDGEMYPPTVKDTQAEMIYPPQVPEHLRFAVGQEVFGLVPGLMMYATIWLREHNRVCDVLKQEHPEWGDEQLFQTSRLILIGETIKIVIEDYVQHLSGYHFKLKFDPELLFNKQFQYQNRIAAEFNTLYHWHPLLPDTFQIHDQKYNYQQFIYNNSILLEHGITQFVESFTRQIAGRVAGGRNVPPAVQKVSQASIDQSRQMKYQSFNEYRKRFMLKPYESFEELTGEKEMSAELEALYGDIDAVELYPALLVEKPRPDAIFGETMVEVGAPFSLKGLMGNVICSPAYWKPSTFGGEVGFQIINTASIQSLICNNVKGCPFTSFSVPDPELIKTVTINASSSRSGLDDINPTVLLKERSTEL
# [5] = system: MBS model of epilepsy; settings: mice
# [6] = system: MBS model of epilepsy; settings: rats
# [7] = system: seizures; settings: response = reduced seizure frequency of greater than 50%; surveys
# [8] = receptor affinity and effect; purportedly
# [9] = system: experimentally induced nausea; settings: rats; 5HT1A receptor-mediated
# [10] = biological target: TRPM8 (Homo sapiens, UniProt Q7Z2W7)
# [11] = biological target: COX-1 (Homo sapiens, UniProt P23219)
# [12] = biological target: TRPV1′ (Homo sapiens, UniProt Q8NER1)
# [13] = biological target: T3, 5-HT1A receptors (Homo sapiens, UniProt P08908)
# T3 sequence (P08908 1-422): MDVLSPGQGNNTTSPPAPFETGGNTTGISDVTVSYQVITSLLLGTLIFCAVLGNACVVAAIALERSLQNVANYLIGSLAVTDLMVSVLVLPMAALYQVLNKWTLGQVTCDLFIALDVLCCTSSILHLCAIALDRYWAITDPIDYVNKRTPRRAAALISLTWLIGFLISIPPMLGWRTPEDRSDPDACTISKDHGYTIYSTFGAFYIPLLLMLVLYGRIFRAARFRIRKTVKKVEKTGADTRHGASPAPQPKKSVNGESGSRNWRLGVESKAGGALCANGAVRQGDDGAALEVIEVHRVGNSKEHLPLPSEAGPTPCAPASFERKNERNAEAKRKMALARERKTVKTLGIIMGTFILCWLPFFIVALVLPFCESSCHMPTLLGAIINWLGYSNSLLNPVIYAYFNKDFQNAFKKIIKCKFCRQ
# [14] = system: MDA-MB-231 human breast cancer cells
# [15] = biological target: GPR-55 (Homo sapiens, UniProt Q9Y2T6)
# [16] = biological target: TRPA1 (Homo sapiens, UniProt O75762)
# TRPA1, sequence (O75762 whole entry, species assumed): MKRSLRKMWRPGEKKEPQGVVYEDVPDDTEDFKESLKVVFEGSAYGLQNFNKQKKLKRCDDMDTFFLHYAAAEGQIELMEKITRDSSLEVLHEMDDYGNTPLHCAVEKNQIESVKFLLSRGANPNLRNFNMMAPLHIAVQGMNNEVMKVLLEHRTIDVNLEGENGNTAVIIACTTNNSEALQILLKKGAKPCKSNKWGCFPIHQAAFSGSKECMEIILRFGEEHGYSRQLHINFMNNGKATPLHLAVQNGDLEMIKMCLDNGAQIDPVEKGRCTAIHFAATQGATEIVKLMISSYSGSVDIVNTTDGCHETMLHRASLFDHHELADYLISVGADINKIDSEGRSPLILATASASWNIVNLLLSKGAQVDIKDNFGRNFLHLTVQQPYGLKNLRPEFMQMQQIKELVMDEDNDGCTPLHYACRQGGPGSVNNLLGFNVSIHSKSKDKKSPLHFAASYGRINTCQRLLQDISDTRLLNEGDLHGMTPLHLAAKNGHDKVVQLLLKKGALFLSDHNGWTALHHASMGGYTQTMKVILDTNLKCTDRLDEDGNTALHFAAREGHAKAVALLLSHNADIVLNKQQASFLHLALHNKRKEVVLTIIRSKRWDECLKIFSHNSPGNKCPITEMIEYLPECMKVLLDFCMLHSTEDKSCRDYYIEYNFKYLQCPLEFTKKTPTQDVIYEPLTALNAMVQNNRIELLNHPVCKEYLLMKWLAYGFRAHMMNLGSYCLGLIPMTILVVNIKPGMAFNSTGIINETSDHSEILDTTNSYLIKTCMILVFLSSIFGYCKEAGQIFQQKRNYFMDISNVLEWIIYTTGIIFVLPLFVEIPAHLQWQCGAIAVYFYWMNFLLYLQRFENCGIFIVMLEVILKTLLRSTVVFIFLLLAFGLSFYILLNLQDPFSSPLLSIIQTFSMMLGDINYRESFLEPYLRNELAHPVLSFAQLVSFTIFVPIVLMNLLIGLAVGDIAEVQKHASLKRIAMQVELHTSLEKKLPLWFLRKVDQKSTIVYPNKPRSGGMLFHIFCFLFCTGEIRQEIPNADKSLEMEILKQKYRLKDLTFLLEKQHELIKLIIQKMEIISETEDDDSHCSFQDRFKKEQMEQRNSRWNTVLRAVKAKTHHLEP
# GPR-55, sequence (Q9Y2T6 whole entry, species assumed): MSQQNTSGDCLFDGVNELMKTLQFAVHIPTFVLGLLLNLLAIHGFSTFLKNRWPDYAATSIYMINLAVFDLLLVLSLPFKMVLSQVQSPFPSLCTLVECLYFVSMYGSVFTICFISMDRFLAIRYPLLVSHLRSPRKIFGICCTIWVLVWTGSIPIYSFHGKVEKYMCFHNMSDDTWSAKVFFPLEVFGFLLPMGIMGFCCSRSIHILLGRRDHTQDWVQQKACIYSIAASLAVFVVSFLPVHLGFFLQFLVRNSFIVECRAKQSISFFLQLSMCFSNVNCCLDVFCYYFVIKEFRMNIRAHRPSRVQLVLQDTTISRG
# COX-1, sequence (P23219 24-599): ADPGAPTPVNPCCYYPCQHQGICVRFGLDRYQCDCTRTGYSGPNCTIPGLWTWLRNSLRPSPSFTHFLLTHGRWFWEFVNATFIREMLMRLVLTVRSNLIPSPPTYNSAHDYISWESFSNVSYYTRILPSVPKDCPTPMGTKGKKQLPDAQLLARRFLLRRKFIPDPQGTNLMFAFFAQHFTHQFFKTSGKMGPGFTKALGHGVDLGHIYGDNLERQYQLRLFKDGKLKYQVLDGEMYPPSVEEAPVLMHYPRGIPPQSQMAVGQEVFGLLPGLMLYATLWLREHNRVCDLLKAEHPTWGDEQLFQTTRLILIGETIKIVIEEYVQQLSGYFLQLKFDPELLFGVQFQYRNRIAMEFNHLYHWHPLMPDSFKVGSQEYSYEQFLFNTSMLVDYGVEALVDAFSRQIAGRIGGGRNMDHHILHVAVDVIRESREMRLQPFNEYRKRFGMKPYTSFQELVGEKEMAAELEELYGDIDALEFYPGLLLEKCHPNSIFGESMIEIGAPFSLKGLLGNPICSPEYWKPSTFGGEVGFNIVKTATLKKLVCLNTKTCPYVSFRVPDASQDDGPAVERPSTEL
# TRPM8, sequence (Q7Z2W7 whole entry, species assumed): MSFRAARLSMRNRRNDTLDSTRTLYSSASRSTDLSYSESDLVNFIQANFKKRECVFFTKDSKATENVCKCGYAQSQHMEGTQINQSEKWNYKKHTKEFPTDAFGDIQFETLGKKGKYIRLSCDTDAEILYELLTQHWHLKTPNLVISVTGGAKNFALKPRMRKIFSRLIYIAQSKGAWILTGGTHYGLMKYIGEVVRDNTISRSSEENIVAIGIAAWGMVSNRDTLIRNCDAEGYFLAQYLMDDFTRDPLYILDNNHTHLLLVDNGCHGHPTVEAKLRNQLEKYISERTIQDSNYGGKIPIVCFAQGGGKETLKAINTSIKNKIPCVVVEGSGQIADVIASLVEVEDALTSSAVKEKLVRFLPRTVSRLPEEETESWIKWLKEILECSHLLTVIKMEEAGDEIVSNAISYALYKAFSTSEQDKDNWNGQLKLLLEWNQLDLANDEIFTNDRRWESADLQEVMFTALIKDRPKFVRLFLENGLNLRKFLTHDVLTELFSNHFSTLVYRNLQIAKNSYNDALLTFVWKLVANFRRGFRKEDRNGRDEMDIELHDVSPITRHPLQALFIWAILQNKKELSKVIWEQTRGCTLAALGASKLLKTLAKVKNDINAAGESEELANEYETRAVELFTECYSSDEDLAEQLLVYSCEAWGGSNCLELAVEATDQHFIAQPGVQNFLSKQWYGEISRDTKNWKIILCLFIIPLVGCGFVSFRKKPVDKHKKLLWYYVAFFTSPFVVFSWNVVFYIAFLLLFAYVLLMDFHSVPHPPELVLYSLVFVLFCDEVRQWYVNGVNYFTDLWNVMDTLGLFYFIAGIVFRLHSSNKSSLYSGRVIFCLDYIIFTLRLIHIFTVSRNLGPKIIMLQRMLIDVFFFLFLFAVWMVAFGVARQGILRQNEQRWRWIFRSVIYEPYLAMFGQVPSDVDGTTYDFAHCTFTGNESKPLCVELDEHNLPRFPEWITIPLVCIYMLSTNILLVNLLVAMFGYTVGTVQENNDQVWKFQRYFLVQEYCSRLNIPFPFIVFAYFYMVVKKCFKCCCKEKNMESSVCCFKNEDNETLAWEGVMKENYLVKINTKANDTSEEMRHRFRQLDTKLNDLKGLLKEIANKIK
# TRPV1′, sequence (Q8NER1 whole entry, species assumed): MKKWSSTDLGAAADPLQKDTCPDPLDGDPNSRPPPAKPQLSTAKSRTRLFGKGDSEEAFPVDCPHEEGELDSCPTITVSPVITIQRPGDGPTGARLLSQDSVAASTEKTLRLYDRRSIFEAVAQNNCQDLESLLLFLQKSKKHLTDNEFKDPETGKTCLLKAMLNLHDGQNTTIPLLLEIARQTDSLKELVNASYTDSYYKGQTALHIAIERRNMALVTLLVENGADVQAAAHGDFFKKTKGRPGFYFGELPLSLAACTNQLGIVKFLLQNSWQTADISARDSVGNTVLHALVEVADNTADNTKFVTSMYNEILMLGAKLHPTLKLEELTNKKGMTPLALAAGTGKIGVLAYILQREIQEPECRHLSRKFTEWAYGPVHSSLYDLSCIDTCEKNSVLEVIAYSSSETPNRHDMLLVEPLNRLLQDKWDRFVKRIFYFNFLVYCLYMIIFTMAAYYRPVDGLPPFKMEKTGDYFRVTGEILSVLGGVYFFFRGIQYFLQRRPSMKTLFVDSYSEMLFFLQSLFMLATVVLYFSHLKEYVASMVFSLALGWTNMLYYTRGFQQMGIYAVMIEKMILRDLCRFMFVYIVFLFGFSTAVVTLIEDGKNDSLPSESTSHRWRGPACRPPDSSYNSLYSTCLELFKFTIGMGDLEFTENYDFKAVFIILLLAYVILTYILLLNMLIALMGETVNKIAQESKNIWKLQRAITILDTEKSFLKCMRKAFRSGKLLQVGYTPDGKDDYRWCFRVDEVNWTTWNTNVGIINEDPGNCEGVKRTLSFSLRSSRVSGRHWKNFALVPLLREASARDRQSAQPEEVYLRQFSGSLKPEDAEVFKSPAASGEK
smiles,measurement,setting,value
"CCCCCc1cc2c(c(O)c1C(=O)O)[C@@H]1C=C(C)CC[C@H]1C(C)(C)O2 [THCa, tetrahydrocannabinolic acid]",effect on spread of prostate cancer cells,[1],limit the spread
same,PPARγ binding compared with the corresponding neutral cannabinoid,[2],outperform
"C=C(C)[C@@H]1CCC(C)=C[C@H]1c1c(O)cc(CCCCC)cc1O [CBD, cannabidiol]",improvement in BA,[3],10 ×
same,"COX-2 inhibition, in words",[4]; compared with CBDa,not nearly as active
same,ED50 for the MBS model of epilepsy,[5],85 mg/kg
same,ED50 for the MBS model of epilepsy,[6],89 mg/kg
same,response rate,[7],~47%
"CCCCCc1cc(O)c(C/C=C(\C)CCC=C(C)C)c(O)c1C(=O)O [CBGa, cannabigerolic acid]",PPARγ binding compared with the corresponding neutral cannabinoid,[2],outperform
"C=C(C)[C@@H]1CCC(C)=C[C@H]1c1c(O)cc(CCCCC)c(C(=O)O)c1O [CBDa, cannabidiolic acid]",potency relative to CBD,[8],1000-4000 ×
same,effect on experimentally induced nausea,[9],suppressed
same,concentration that inhibited COX-2,[4],~2 µM
same,activity at TRPM8,[10],agonist
same,"COX-1 inhibition, in words",[11],does not inhibit
same,activity at TRPV1′,[12],agonist
same,affinity for 5-HT1A receptors over CBD,[13],100 fold
same,PPARγ binding compared with the corresponding neutral cannabinoid,[2],outperform
same,effect on migration of MDA-MB-231 cells,[14],inhibit migration
same,effect on GPR-55,[15],inhibitory effects
same,activity at TRPA1,[16],agonist
